Measurements from US10392649B2, “Biosensors that detect NAD+” (Oregon Health & Science University, priority 2014, dated 2019).

Legend:
[1] = biological target: T1, NAD+ sensor (Enterococcus faecalis, UniProt Q837V6, D286N/K120L); assay: Specificity of the sensor: fluorescence with related mononucleotides, dinucleotides and NAD+ precursors; format: binding; details: purified sensor
T1 construct: HA (N); made in house; host or cells: HEK293T
Method: To determine the specificity of the sensor for NAD+, sensor fluorescence was evaluated in the presence of related mononucleotides, dinucleotides, and NAD+ precursors (FIG. 14G). […] Thus, pH effects can be accommodated by normalizing to cpVenus. […] (FIG. 24A, 24B, 24C).
(§1) Steady-state fluorescence intensity measurements were performed using a Photon Technology International Quanta Master fluorimeter. Excitation spectra were monitored at 530 nm and emission spectra were measured by excitation at 488 nm and 405 nm. Slit widths used gave 8 nm bandpass for excitation and 44 nm bandpass for emission. Absorbance spectroscopy was performed on a Shimadzu 1601 spectrophotometer. Temperature was controlled with a water jacket and monitored using an Omega Thermistor.

[2] = tested on: HeLa cells; assay: NR in HeLa cells treated with siNAMPT, cytoplasmic sensor; format: cell-based; details: NR 1 mM, 24 hours
Method: In further experiments, siRNAs that target NAMPT were added to the cells (FIG. 15D). […] Importantly, nicotinamide riboside (NR) increased NAD+ levels in these cells through a parallel pathway that utilizes NR kinase to bypass NAMPT (Bieganowski P and Brenner C, Cell 117, 495-502 (2004); incorporated by reference herein) (FIG. 15E).
Live cell imaging was done on a fully motorized Nikon TiE stand with a Yokogawa W1 spinning disk confocal unit. Instrumentation for this project included a motorized stage in x and y for point-revisiting; z-axis control for fast piezo-based positioning and continuous focus-drift compensation for live cell imaging; dual-pinhole array for improved optical sectioning, a high powered Agilent laser launch; split simultaneous acquisition on two Andor Zyla 5.5 sCMOS cameras; and a 100×1.49 Apo TIRF objective. During imaging, cells were maintained in 5% CO2 at 34° C. Cells were excited at 488 nm and monitored with emission 525/25 nm. For each condition, at least 5 fields containing approximately 50-100 cells were used for quantification of pixel intensity using Metamorph software. The mean intensity per field of each siRNA was normalized to the scramble condition to obtain the normalized intensity measurement.

[3] = biological target: T2, cytoplasmic sensor (Enterococcus faecalis, UniProt Q837V6, D286N/K120L); assay: NR effect on cytoplasmic sensor fluorescence when NMNAT2 was depleted; format: cell-based; details: NR 1 mM, 24 hours
T2 construct: expressed in transfected cells; HeLa cells were also used
Excerpt: FIG. 28 is a bar graph showing that Nicotinamide riboside (NR) has no direct effect on the fluorescence of the cytoplasmic sensor. The cytoplasmically-localized sensor reported a decrease of cytoplasmic NAD+ following depletion of NMNAT2.

[4] = tested on: HeLa cells; assay: NR rescue of mitochondrial NAD+ in HeLa cells depleted of NMNAT2; format: cell-based; details: NR 1 mM, 24 hours, NMNAT2 depletion
Excerpt: To confirm this, HeLa cells, which contain very low levels of NMNAT3, were examined. […] Despite its low expression, NMNAT2 was active in HeLa cells, as its depletion decreased cytoplasmic NAD+ (FIG. 38). […] (FIG. 17B). This depletion was not rescued by addition of NR, implying that cytoplasmic NAD+, and not NMN, is responsible for maintaining mitochondrial NAD+ levels in HeLa cells (FIG. 17B). Thus, there appear to be multiple mechanisms for maintaining mitochondrial NAD+ in different cell types; conversion of NMN by NMNAT3 and active transport of cytoplasmic NAD+. An NAD+ transporter has been identified in bacteria (Haferkamp I et al, Nature 432, 622-625 (2004); incorporated by reference herein), yeast (Todisco S et al, J Biol Chem 281, 1524-1531 (2006); incorporated by reference herein), and plants (Palmieri F et al, J Biol Chem 284, 31249-31259 (2009); incorporated by reference herein), although a mammalian homologue has not yet been identified.
(§2) Live cell imaging was done on a fully motorized Nikon TiE stand with a Yokogawa W1 spinning disk confocal unit. […] Cells were excited at 488 nm and monitored with emission 525/25 nm. For each condition, at least 5 fields containing approximately 50-100 cells were used for quantification of pixel intensity using Metamorph software. […]

[5] = Fluorescence spectroscopy of purified sensor with NAD+ (cell free); format: binding; details: for effect of NAD+ on fluorescence (ex. 488 nm): purified protein, NAD+ concentrations up to 1 mM
Method: Fluorescence emission spectra were recorded using a PTI steady-state fluorescence spectrophotometer. Excitation spectra were captured at 530 nm while exciting from 350 to 515 nm. Emission spectra were measured by excitation at 405 nm or 488 nm while scanning the fluorescence intensity of 475 to 600 nm.
The sensors and controls were purified in batch format from mammalian HEK293T cells via their N-terminal Flag epitope tag, using anti-Flag M2 Affinity Gel (Sigma) and lysis buffer (50 mM Tris pH 7.4, 150 mM NaCl, 1 mM EDTA, 10 mM NaF, 0.5% NP-40, 1 mM DTT, and Complete Protease Inhibitor cocktail). Protein was eluted with 500 μg/mL 3× Flag peptide and dialyzed against 100 mM Tris pH 7.4, 150 mM NaCl, 0.5 mM DTT, 100 μM PMSF, 1 mM EDTA, and 50% glycerol. Bradford assays were used to quantify the concentration in each batch and aliquots were flash frozen in liquid nitrogen for storage at −80° C.
as §1

[6] = NAD+ washout (reversibility of binding to purified sensor); details: 500 μM NAD+, elution over buffer exchange column
Method: Purified sensor (2 μM) was incubated with either 0μ or 500 μM NAD+ in a total of 75 μL and evaluated for its fluorescence excitation and emission spectra. Each sample was then passed over a pre-equilibrated (50 mM Tris pH 7.4, 150 mM NaCl) micro buffer exchange column (Biorad microbiospin P30), washed, and eluted in […] buffer volume for reevaluation of fluorescence.

[7] = Fluorescence lifetime measurements of the sensor; details: 488 nm excitation
Method: Fluorescence lifetime measurements were performed on a PicoQuant FluoTime 200 time correlated single photon counting instrument (PicoQuant, Berlin), outfitted with a Hamamatsu micro-channel plate detector. Decays were measured with the polarizers at the magic angle and with 16 nm bandpass emission slits. […] Emission from the samples was collected at 525 nm, with an additional 520 nm long-pass filter on the detector side of the sample. The fluorescence decays were fit by means of PicoQuant software, using an exponential decay model [I(t)=Σi-1^nAie^−t/τ^i] where A, is the amplitude of the i^th component, in counts, in the first range fitting channel and τi is the lifetime of the i^th component.

[8] = tested on: HEK293T; assay: NAD+ depletion by FK866 in HEK293T lines expressing localized sensors, live flow cytometry; format: cell-based; details: 10 nM FK866, 18 hours; nuclear, cytoplasmic, mitochondrial sensors
Method: (§3) Localization sequences were used to direct the sensor to the nucleus, cytoplasm, and mitochondria (FIG. 15A and FIG. 25A, 25B, 25C). […] Mammalian cells predominantly rely on the NAMPT-dependent salvage pathway for NAD+ biosynthesis (Revollo et al, 2004 supra), and presumably all subcellular compartments would be affected by NAMPT inhibition. To test this idea, clonal HEK293T lines stably expressing the localized sensors or their corresponding cpVenus control were generated. Cells were treated with FK866, a potent inhibitor of NAMPT, and NAD+ depletion in different compartments was monitored by live flow cytometry (FIG. 15B). FK866 increased sensor fluorescence in all compartments, indicating a reduction in NAD+ levels. Fluorescence was also monitored in cells expressing the cytoplasmic sensor using live microscopy (FIG. 15C). […]
(§4) Data was collected on a special order BD LSRFortessa using 488-1 (Ex. 488 nm, Em. 525/50) and 405-2 (ex. 405 nm, Em. 515/20) for the sensor, and Ex. 561-3 (ex. 561, em 670/30) for PI intensity. Cells were gated to exclude debris, a standard doublet-exclusion was performed, and 1×10^4 fluorescent cells were evaluated per condition. Data were analyzed and plotted with FlowJo X. Sensor 488/405 ratiometric values were normalized to the appropriate cpVenus and experimental controls. […]

[9] = tested on: HEK293T cells; assay: NAD+ depletion by FK866 in cells expressing cytoplasmic sensor, live microscopy; format: cell-based
Method: as §3, with “15C). Treatment with FK866 began to decrease NAD+ levels in the majority of cells within 1 hour; by 3 hours pockets of NAD+ decreases were observed, which spread throughout the cytoplasm.” for “15C).”
as §2

[10] = tested on: HEK293T cells; assay: HPLC of perchlorate extracted NAD+ from HEK293T cells; format: cell-based; details: 10 nM FK866, 16 hours
Method: FIG. 6A is a set of three HPLC spectra from 10 μM purified NAD^+ standard compared to perchlorate extracted NAD^+ from HEK293T cells treated with 0 nM (middle) or 10 nM (bottom) FK866 for 16 hours. Note that NAD^+ is recovered from untreated cells while it is depleted in FK866 treated cells.

[11] = Competition for free NAD+ with GAPDH, sensor fluorescence in real time; format: binding; details: equimolar GAPDH, absence of substrate, 10 μM NAD+
Method: Fluorescence emission of […] purified sensor was monitored at 520 nm following excitation at 488 nm over time. Three 1-second exposures were obtained every 30 seconds at 20° C. in 100 mM HEPES pH7.4, 150 mM NaCl, 10 mM MgCl2. At the 240 timepoint, NAD+ was added to a final concentration of 10 μM; at the 600 second timepoint, full-length active human GAPDH (AbCam) was added to a final concentration of 11.7 μM. Fluorescence measurements were corrected for dilution factor. Mean±SD, n=2.

[12] = Calibration of cytoplasmic sensor in digitonin permeabilized HEK293T cells, flow cytometry; format: cell-based
Method: The free NAD+ concentration in the nucleus and cytoplasm has been debated. To calibrate the sensor, cells were permeabilized with digitonin to allow internal NAD+ levels to equilibrate with concentrations external to the cell and fluorescence monitored by flow cytometry. Equilibration was assessed using propidium iodide (PI), whose molecular weight is similar to that of NAD+ (FIG. 29). […] The mean of the fluorescence ratio (488/405 nm) for the cytoplasmic sensor in non-permeabilized HEK293T cells relative to cpVenus was interpolated to reveal a free NAD+ value of 105.8 μM (95% Cl, 92.3 μM to 121.7 μM). […] To confirm these calculations, flow cytometry was used to examine the fluorescence of the cytoplasmic sensor in populations of HeLa cells that were partially permeabilized (FIG. 16B). When equilibrated with either 500 μM or 1 mM NAD+, cytoplasmic fluorescence of the permeabilized cell population decreased, indicating an increase in NAD+. In contrast, equilibration with media containing no external NAD+ increased fluorescence, likely due to NAD+ diffusion. […]
as §4, with “condition.” for “condition. Data were analyzed and plotted with FlowJo X. Sensor 488/405 ratiometric values were normalized to the appropriate cpVenus and experimental controls.”

T1 sequence (Q837V6 other isoform, or with tags, fused parts or gaps K120L/D286N): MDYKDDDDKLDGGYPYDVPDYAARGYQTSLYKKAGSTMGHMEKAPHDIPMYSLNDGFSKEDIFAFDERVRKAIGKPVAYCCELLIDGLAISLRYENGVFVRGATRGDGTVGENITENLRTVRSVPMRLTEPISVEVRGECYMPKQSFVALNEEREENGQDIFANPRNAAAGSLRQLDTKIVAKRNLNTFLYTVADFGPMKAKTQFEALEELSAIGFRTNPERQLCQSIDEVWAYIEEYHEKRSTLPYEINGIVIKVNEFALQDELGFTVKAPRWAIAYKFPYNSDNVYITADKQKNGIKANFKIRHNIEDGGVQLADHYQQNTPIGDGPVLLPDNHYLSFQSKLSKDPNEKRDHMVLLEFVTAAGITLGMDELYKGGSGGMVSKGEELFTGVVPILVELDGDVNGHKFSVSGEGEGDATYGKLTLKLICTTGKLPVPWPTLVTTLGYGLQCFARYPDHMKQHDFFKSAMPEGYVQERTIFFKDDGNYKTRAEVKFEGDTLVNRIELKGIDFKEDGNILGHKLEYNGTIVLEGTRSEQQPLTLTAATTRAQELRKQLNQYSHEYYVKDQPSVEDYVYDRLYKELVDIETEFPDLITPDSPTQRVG
T2 sequence (Q837V6 other isoform, or with tags, fused parts or gaps K120L/D286N): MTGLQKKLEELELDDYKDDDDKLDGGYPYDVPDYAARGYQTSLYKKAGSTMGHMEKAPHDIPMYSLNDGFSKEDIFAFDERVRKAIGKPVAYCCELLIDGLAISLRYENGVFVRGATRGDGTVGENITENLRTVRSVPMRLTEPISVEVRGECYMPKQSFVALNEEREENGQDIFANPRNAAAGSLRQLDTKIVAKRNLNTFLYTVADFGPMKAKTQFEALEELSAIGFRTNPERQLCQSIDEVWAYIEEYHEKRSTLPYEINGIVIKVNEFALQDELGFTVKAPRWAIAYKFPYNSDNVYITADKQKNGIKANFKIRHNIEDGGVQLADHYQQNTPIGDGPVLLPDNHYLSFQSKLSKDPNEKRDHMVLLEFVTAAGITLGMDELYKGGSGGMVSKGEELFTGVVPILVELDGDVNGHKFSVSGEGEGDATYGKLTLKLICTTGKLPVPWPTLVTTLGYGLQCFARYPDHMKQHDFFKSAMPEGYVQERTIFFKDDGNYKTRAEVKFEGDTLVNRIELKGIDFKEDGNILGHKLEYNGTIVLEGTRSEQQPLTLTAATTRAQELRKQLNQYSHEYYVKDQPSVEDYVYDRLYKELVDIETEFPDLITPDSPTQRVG

NC(=O)c1ccc[n+]([C@@H]2O[C@H](CO)[C@@H](O)[C@H]2O)c1 [NR, nicotinamide riboside]
effect of substrate on sensor fluorescence / recognition by the sensor [1]: not recognized
NAD+ levels [2]: increased
nonspecific effect on sensor fluorescence [3]: did not alter
rescue of decreased mitochondrial NAD+ [4]: not rescued

sensor: NAD+ biosensor polypeptide: FLAG, HA, LigA 78-317 fragment, cpVenus, linker, LigA 2-70 fragment
change in the Kd value with temperature ([5]; between 20-37° C.): no significant changes
Kd ([5]; in vitro, purified sensor, 488 nm, read-out: apparent Kd(NAD+)): ~65 µM
NAD+-dependent responses across pH ([5]; pH 6.5-8.0): similar
effect of NAD+ on fluorescence (ex. 488 nm) [5]: decreased
effect of NAD+ binding on second excitation peak at 405 nm ([5]; purified sensor): unaffected
reversibility of NAD+ binding [6]: reversible
effect of NAD+ on fluorescence lifetime [7]: did not affect

O=C(/C=C/c1cccnc1)NCCCCC1CCN(C(=O)c2ccccc2)CC1 [FK866]
sensor fluorescence in all compartments (indicating reduction in NAD+ levels) [8]: increased
time at which NAD+ levels began to decrease in the majority of cells [9]: ≤ 1 h
NAD+ recovered by HPLC [10]: depleted

NC(=O)c1ccc[n+]([C@@H]2O[C@H](COP(=O)([O-])OP(=O)(O)OC[C@H]3O[C@@H](n4cnc5c(N)ncnc54)[C@H](O)[C@@H]3O)[C@@H](O)[C@H]2O)c1 [NAD+, nicotinamide adenine dinucleotide]
effect of substrate on sensor fluorescence / recognition by the sensor [1]: decreased sensor fluorescence

GAPDH: full-length active human glyceraldehyde 3-phosphate dehydrogenase (AbCam)
sensor fluorescence upon GAPDH addition [11]: almost immediate recovery of fluorescence

cpVenus: circularly permuted version of Venus fluorescent protein, control
effect of NAD+ on fluorescence (ex. 488 nm) [5]: minimally affected
effect of NAD+ on fluorescence in permeabilized cells [12]: minimally affected
